Measurements reported in patent US20190002427A1, “STEREOISOMER OF FLOCOUMAFEN, COMPOSITION AND RODENTICIDE BAIT COMPRISING SAME, AND METHOD FOR CONTROLLING TARGET RODENT PESTS” (priority 2015, published 2019).

Columns and labels:
[1] = assay type: in vivo, Sprague-Dawley rats; settings: relative to the other configurational stereoisomers; in words
Procedure: About 0.525 g (±0.025 g) of rat liver is weighed out accurately and placed in a 50 mL polypropylene tube. 10 mL of acetone are added and the suspension is homogenized using an Ultra-Turrax® homogenizer/disperser for a time of about 30 seconds. The homogenizer/disperser shaft is rinsed with hot water and then twice with 20 mL of acetone in a polypropylene tube. The homogenate is centrifuged for 5 minutes at a centrifugation speed of 3000 rpm (revolutions per minute). The supernatant is collected and transferred into a test tube. The sample is subjected to evaporation under a stream of nitrogen (N2) at a temperature of 40° C. so as to form a dry extract.
1 mL of acetonitrile is added to the tube containing the dry extract so as to dissolve it. […]
The configurational stereoisomers of flocoumafen are separated by high-pressure liquid chromatography using a LUX® Cellulose-4 chiral column (00F-4490-B0, Phenomenex, Le Pecq, France) as stationary phase and a mixture formed from acetonitrile (A) and water comprising 0.1% by volume of formic acid (B), with an A/B volume ratio of 92/8, as mobile phase with a flow rate of the liquid mobile phase in the chromatography column of 0.25 mL/minute. […] In particular, the MRM (“Multiple Reaction Monitoring”) transitions m/z 541.1→382.1 and m/z 541.1→161, corresponding to the flocoumafen signal, are detected. […]

target rodent pests = experiment: Rodenticidal efficacy; assay type: in vivo; settings: relative to the other configurational stereoisomers; in words, no data shown

With `O=c1oc2ccccc2c(O)c1C1CC(c2ccc(OCc3ccc(C(F)(F)F)cc3)cc2)Cc2ccccc21` (single isomer, unassigned) [Enantiomer E4, flocoumafen] the “Persistence in the liver” value [1] was “more persistent in the liver of the target rodent pests” and the Rodenticidal efficacy (target rodent pests) was “increased rodenticidal efficacy relative to the other configurational stereoisomers”.
